The source made the active and inactive calls. The rule behind the calls is not given here.
Columns and labels:
SW480 = test: Inhibition of colony formation of human SW480 cells assessed as reduction in clonogenic ability at 5 to 20 ug/ml incubated for 10 to 14 days by crystal violet staining based assay; assay type: functional, cell-based
[1] = Toxicity in BALB/c mouse xenografted with human HCT116 cells assessed as induction of alterations in liver at 10 to 20 mg/kg, ip dosed daily for 21 days starting from 1 day post implantation and measured every three days by hematoxylin and eosin staining based histopathological analysis; assay type: organism-based; settings: in vivo
HCT-116 [2] = test: Induction of apoptosis in human HCT116 cells incubated for 48 hrs by annexin-V/PI staining based flow cyclometry; assay type: functional, cell-based
HCT-116 [3] = test: Antitumor activity against human HCT116 cells xenografted in BALB/c mouse assessed as inhibition of tumor growth at 10 to 20 mg/kg, ip dosed daily for 21 days starting from 1 day post implantation and measured every three days; assay type: functional, organism-based
HCT-116 [4] = test: Induction of ROS generation in human HCT116 cells at 20 ug/ml incubated for 48 hrs by DCFH-DA staining based FCM analysis (reference value: 4.44%); assay type: functional
[5] = Toxicity in BALB/c mouse xenografted with human HCT116 cells assessed as induction of alterations in lung at 10 to 20 mg/kg, ip dosed daily for 21 days starting from 1 day post implantation and measured every three days by hematoxylin and eosin staining based histopathological analysis; assay type: organism-based; settings: in vivo
HCT-116 [6] = test: Induction of apoptosis in human HCT116 cells assessed as late apoptotic cell level at 20 ug/ml incubated for 48 hrs by annexin-V/PI staining based flow cyclometry (reference value: 5.11%); assay type: functional
HCT-116 [7] = test: Induction of apoptosis in human HCT116 cells assessed as necrotic cell level at 10 ug/ml incubated for 48 hrs by annexin-V/PI staining based flow cyclometry (reference value: 4.9%); assay type: functional
DLD-1 [8] = test: Inhibition of colony formation of human DLD1 cells assessed as reduction in clonogenic ability at 5 to 20 ug/ml incubated for 10 to 14 days by crystal violet staining based assay; assay type: functional, cell-based
HCT-116 [9] = test: Induction of apoptosis in human HCT116 cells assessed as late apoptotic cell level at 10 ug/ml incubated for 48 hrs by annexin-V/PI staining based flow cyclometry (reference value: 5.11%); assay type: functional
HCT-116 [10] = test: Induction of apoptosis in human HCT116 cells assessed as late apoptotic cell level at 5 ug/ml incubated for 48 hrs by annexin-V/PI staining based flow cyclometry (reference value: 5.11%); assay type: functional
DLD-1 [11] = test: Inhibition of cell motility associated protein expression in human DLD1 cells assessed as effect on TIMP2 expression at 5 to 20 ug/ml incubated for 48 hrs by Western blot analysis; assay type: functional, cell-based
[12] = Toxicity in BALB/c mouse xenografted with human HCT116 cells assessed as effect on body weight at 10 to 20 mg/kg, ip dosed daily for 21 days starting from 1 day post implantation and measured every three days; assay type: organism-based; settings: in vivo
HCT-116 [13] = test: Induction of mitochondrial membrane potential loss in human HCT116 cells at 5 to 20 ug/ml incubated for 48 hrs by RH123.dye based FCM analysis; assay type: functional, cell-based
HCT-116 [14] = test: Induction of apoptosis in human HCT116 cells assessed as reduction in Bcl2 protein expression incubated for 48 hrs by Western blot analysis; assay type: functional, cell-based
HCT-116 [15] = test: Antitumor activity against human HCT116 cells xenografted in BALB/c mouse assessed as reduction in Ki-67 positive cells in tumor at 10 to 20 mg/kg, ip dosed daily for 21 days starting from 1 day post implantation and measured every three days by immunohistochemistry analysis; assay type: functional, organism-based
HCT-116 [16] = test: Induction of apoptosis in human HCT116 cells assessed as early apoptotic cell level at 10 ug/ml incubated for 48 hrs by annexin-V/PI staining based flow cyclometry (reference value: 1.84%); assay type: functional
[17] = Toxicity in BALB/c mouse xenografted with human HCT116 cells assessed as induction of alterations in heart at 10 to 20 mg/kg, ip dosed daily for 21 days starting from 1 day post implantation and measured every three days by hematoxylin and eosin staining based histopathological analysis; assay type: organism-based; settings: in vivo
HCT-116 [18] = test: Induction of apoptosis in human HCT116 cells assessed as viable cell level at 20 ug/ml incubated for 48 hrs by annexin-V/PI staining based flow cyclometry (reference value: 81.8%); assay type: functional
HCT-116 [19] = test: Induction of apoptosis in human HCT116 cells assessed as early apoptotic cell level at 20 ug/ml incubated for 48 hrs by annexin-V/PI staining based flow cyclometry (reference value: 1.84%); assay type: functional
HCT-116 [20] = test: Induction of apoptosis in human HCT116 cells assessed as early apoptotic cell level at 5 ug/ml incubated for 48 hrs by annexin-V/PI staining based flow cyclometry (reference value: 1.84%); assay type: functional
DLD-1 [21] = test: Inhibition of cell migration in human DLD1 cells at 5 to 20 ug/ml incubated for 48 hrs by Transwell migration assay; assay type: functional, cell-based
HCT-116 [22] = test: Induction of ROS generation in human HCT116 cells at 5 to 20 ug/ml incubated for 48 hrs by DCFH-DA staining based FCM analysis; assay type: functional, cell-based
HCT-116 [23] = test: Induction of apoptosis in human HCT116 cells assessed as viable cell level at 5 ug/ml incubated for 48 hrs by annexin-V/PI staining based flow cyclometry (reference value: 81.8%); assay type: functional
HCT-116 [24] = test: Induction of ROS generation in human HCT116 cells at 5 ug/ml incubated for 48 hrs by DCFH-DA staining based FCM analysis (reference value: 4.44%); assay type: functional
HCT-116 [25] = test: Induction of ROS generation in human HCT116 cells at 10 ug/ml incubated for 48 hrs by DCFH-DA staining based FCM analysis (reference value: 4.44%); assay type: functional
HCT-116 [26] = test: Inhibition of colony formation of human HCT116 cells assessed as reduction in clonogenic ability at 5 to 20 ug/ml incubated for 10 to 14 days by crystal violet staining based assay; assay type: functional, cell-based
HCT-116 [27] = test: Induction of apoptosis in human HCT116 cells assessed as increase in Bax protein expression incubated for 48 hrs by Western blot analysis; assay type: functional, cell-based
HCT-116 [28] = test: Antitumor activity against human HCT116 cells xenografted in BALB/c mouse assessed as reduction in MMP2 positive cells in tumor at 10 to 20 mg/kg, ip dosed daily for 21 days starting from 1 day post implantation and measured every three days by immunohistochemistry analysis; assay type: functional, organism-based
HCT-116 [29] = test: Induction of apoptosis in human HCT116 cells assessed as viable cell level at 10 ug/ml incubated for 48 hrs by annexin-V/PI staining based flow cyclometry (reference value: 81.8%); assay type: functional
HCT-116 [30] = test: Induction of apoptosis in human HCT116 cells assessed as necrotic cell level at 5 ug/ml incubated for 48 hrs by annexin-V/PI staining based flow cyclometry (reference value: 4.9%); assay type: functional
DLD-1 [31] = test: Inhibition of cell motility associated protein expression in human DLD1 cells assessed as effect on MMP9 expression at 5 to 20 ug/ml incubated for 48 hrs by Western blot analysis; assay type: functional, cell-based
HCT-116 [32] = test: Induction of apoptosis in human HCT116 cells assessed as increase in cleaved capse-3 protein level incubated for 48 hrs by Western blot analysis; assay type: functional, cell-based
[33] = Toxicity in BALB/c mouse xenografted with human HCT116 cells assessed as induction of alterations in spleen at 10 to 20 mg/kg, ip dosed daily for 21 days starting from 1 day post implantation and measured every three days by hematoxylin and eosin staining based histopathological analysis; assay type: organism-based; settings: in vivo
DLD-1 [34] = test: Inhibition of cell motility associated protein expression in human DLD1 cells assessed as effect on MMP2 expression at 5 to 20 ug/ml incubated for 48 hrs by Western blot analysis; assay type: functional, cell-based
HCT-116 [35] = test: Induction of apoptosis in human HCT116 cells assessed as necrotic cell level at 20 ug/ml incubated for 48 hrs by annexin-V/PI staining based flow cyclometry (reference value: 4.9%); assay type: functional
HCT-116 [36] = test: Induction of mitochondrial membrane potential loss in human HCT116 cells at 5 ug/ml incubated for 48 hrs by RH123.dye based FCM analysis (reference value: 6.37%); assay type: functional
[37] = Toxicity in BALB/c mouse xenografted with human HCT116 cells assessed as induction of alterations in kidney at 10 to 20 mg/kg, ip dosed daily for 21 days starting from 1 day post implantation and measured every three days by hematoxylin and eosin staining based histopathological analysis; assay type: organism-based; settings: in vivo
DLD-1 [38] = test: Inhibition of cell invasion in human DLD1 cells at 5 to 20 ug/ml incubated for 48 hrs by crystal violet staining based inverted microscopy; assay type: functional
HCT-116 [39] = test: Induction of mitochondrial membrane potential loss in human HCT116 cells at 10 ug/ml incubated for 48 hrs by RH123.dye based FCM analysis (reference value: 6.37%); assay type: functional
HCT-116 [40] = test: Induction of mitochondrial membrane potential loss in human HCT116 cells at 20 ug/ml incubated for 48 hrs by RH123.dye based FCM analysis (reference value: 6.37%); assay type: functional

C=C(C)[C@@H]1CC[C@]2(C(=O)O)CC[C@]3(C)[C@H](CC[C@@H]4[C@@]5(C)CC[C@H](O)C(C)(C)[C@@H]5CC[C@]43C)[C@@H]12 [BETULINIC ACID]
inhibition (SW480): Active
Activity [1]: Non-Toxic
Activity (HCT-116 [2]): Dose-dependent effect
TGI (HCT-116 [3]): Active
Activity (HCT-116 [4]): 18.9%
Activity [5]: Non-Toxic
Activity (HCT-116 [6]): 25.2%
Activity (HCT-116 [7]): 10.9%
inhibition (DLD-1 [8]): Active
Activity (HCT-116 [9]): 13%
Activity (HCT-116 [10]): 11.5%
inhibition (DLD-1 [11]): Active
Activity [12]: Non-Toxic
Activity (HCT-116 [13]): Active
Activity (HCT-116 [14]): Dose-dependent effect
inhibition (HCT-116 [15]): Active
Activity (HCT-116 [16]): 2.33%
Activity [17]: Non-Toxic
Activity (HCT-116 [18]): 53.5%
Activity (HCT-116 [19]): 6.72%
Activity (HCT-116 [20]): 1.63%
Activity (DLD-1 [21]): Active
Activity (HCT-116 [22]): Dose-dependent effect
Activity (HCT-116 [23]): 79%
Activity (HCT-116 [24]): 9.58%
Activity (HCT-116 [25]): 13.6%
inhibition (HCT-116 [26]): Active
Activity (HCT-116 [27]): Dose-dependent effect
inhibition (HCT-116 [28]): Active
Activity (HCT-116 [29]): 73.8%
Activity (HCT-116 [30]): 7.94%
inhibition (DLD-1 [31]): Active
Activity (HCT-116 [32]): Dose-dependent effect
Activity [33]: Non-Toxic
inhibition (DLD-1 [34]): Active
Activity (HCT-116 [35]): 14.5%
Activity (HCT-116 [36]): 17.2%
Activity [37]: Non-Toxic
Activity (DLD-1 [38]): Active
Activity (HCT-116 [39]): 19.5%
Activity (HCT-116 [40]): 21.3%

Reference: ChEMBL document CHEMBL4402509, “Betulinic acid induces apoptosis and inhibits metastasis of human colorectal cancer cells in vitro and in vivo” (Bioorg Med Chem, 2019)
